In PMC6101487 (2018) one finds binding data, which are given here for 1 compound.

Common to all, as to test: fluorescence scan of RNA array
Details in all cases: 6 mM MgCl2, 20 mM NaCl; 40 mM Tris pH 7.8, 20 °C, 16 h; 20 μM malachite green

Assay [1] deals with ompAsa (RNA, mRNA element) GGGCCAGGGGUGCUCGGCAUAAGCCGAAGAUAUCGGUAGAGUUAAUAUUGAGCAGAUCCCCCGGUGAAGGAUUUAACCGUGUUAUCUCGUUGGAGAUAUUCAUGGCGUAUUUUGGAUGAUAACGAGGCGCAAAAAAUGAAAAAGACAGCUAUCGCGAUUGCAGUGGCAAAUAAUAAUAAUAAUAAUAAUAUGCAUGCACCGACCAGAAUCAUGCAAGUGCGUAAGAUAGUCGCGGGCCGGGGCAUGCAU
Assay [2] deals with rpoSsa (RNA, mRNA element) GGGUUCUGAGUCUUCGGGUGAACAGAGUGCUAACAAAAUGUUGCCGAACAACAAGCCAACUGCGACCACGGUCACAGCGCCUGUAACGGUACCAACAGCAAGCACAACCGAGCCGACUGUCAGCAGUACAUCAACCAGUACGCCUAUCUCCACCUGGACCUGGCCGACUGAGGGCAAAGUGAUCGAAACCUUUGGCGCUUCUGAGGGGGGCAACAAGGGGAUUGAUAUCGCAGGCAGCAAAGGACAGGCAAUUAUCGCGACCGCAGAUGGCCGCGUUGUUUAUGCUGGUAACGCGCUGCGCGGCUACGGUAAUCUGAUUAUCAUCAAACAUAAUGAUGAUUACCUGAGUGCCUACGCCCAUAACGACACAAUGCUGGUCCGGGAACAACAAGAAGUUAAGGCGGGGCAAAAAAUAGCGACCAUGGGUAGCACCGGAACCAGUUCAACACGCUUGCAUUUUGAAAUUCGUUACAAGGGGAAAUCCGUAAACCCGCUGCGUUAUUUGCCGCAGCGAUAAAUCGGCGGAACCAGGCUUUUGCUUGAAUGUUCCGUCAAGGGAUCACGGGUAGGAGCCACCUUAUGAGUCAGAUUUUUUUUUUUUUUUUUUAUGCAUGCACCGACCAGAAUCAUGCAAGUGCGUAAGAUAGUCGCGGGCCGGGGCAUGCAU

Assay [3] concerns RprAsa (RNA, other) GGGACGGUUAUAAAUCAACAUAUUGAUUUAUAAGCAUGGAAAUCCCCUGAGUGAAACAACGAAUUGCUGUGUGUAGUCUUUGCCCAUCUCCCACGAUGGGCUUUUUUUUUUUUUUUUUUUUUUUUUUGUGUGACCGACCAGAAUCAUGCAAGUGCGUAAGAUAGUCGCGGGCCGGGCACAC
In assay [4] the test system is MicAsa (RNA, other) GGGGAAAGACGCGCAUUUGUUAUCAUCAUCCCUGAAUUCAGAGAUGAAAUUUUGGCCACUCACGAGUGGCCUUUUACACACACACACACACACACGCAUGCAUACCGACCAGAAUCAUGCAAGUGCGUAAGAUAGUCGCGGGCCGGGAUGCAUGC
Assay [5] deals with DsrAsa (RNA, other) GGGAACACAUCAGAUUUCCUGGUGUAACGAAUUUUUUAAGUGCUUCUUGCUUAAGCAAGUUUCAUCCCGACCCCCUCAGGGUCGGGAUUUUUUUUUUUUUUUUUUUUUUAGAGACCGACCAGAAUCAUGCAAGUGCGUAAGAUAGUCGCGGGCCGGGCUCUA
In assay [6] the test system is MGsa (malachite green aptamer–streptavidin aptamer conjugate) (RNA, aptamer) GGAUCCCGACUGGCGAGAGCCAGGUAACGAAUGGAUCCACACACACACACACACACACGCAUGCAUACCGACCAGAAUCAUGCAAGUGCGUAAGAUAGUCGCGGGCCGGGAUGCAUGC

With `CN(C)c1ccc(C(=C2C=CC(=[N+](C)C)C=C2)c2ccccc2)cc1`, the binding entry in assay [1] is recorded as “no”; in assay [2], “no”; in assay [3] it was “no”; in assay [4], “no”; in assay [5], “no”; in assay [6] it was “yes”.
